Earlier results, collected in patent US20080233201A1, “Method for Preparing Calibrated Biodegradable Microspheres” (priority 2004, published 2008).

Conditions: at 20° C.

CCOC(C)=O [Ethyl acetate]
solubility in water: 8.7 g/100 g of water
